Measurements taken from publication PMC12812009, “Optimization of 4‐Amino‐2‐Pyridone Inhibitors of Proprotein Convertase Subtilisin/Kexin Type 9: Integrating Structure–Activity and Structure–Metabolism Relationships” (Chemmedchem, 2025).
Like-named read-outs stand apart in the source and are kept apart here.

Key:
secreted PCSK9 = experiment: PCSK9 secretion in culture medium, ELISA on HepG2 supernatants; assay type: cell-based, human; details: for decrease of secreted PCSK9 vs. basal: given as decrease
Procedure: Next, the levels of secreted PCSK9 were quantified by ELISA assay (Figure 5) only on supernatants collected from cells treated with noncytotoxic concentrations of each compound, as reported in Table 1. Simvastatin (Simva) at 20 and 40 μM and berberine (BBR) at 10 μM were included as controls. As described in the literature, simvastatin induces PCSK9 expression as a compensatory mechanism in response to its cholesterol‐lowering effects, being a pharmacological competitor for HMG‐CoA reductase, the rate‐limiting enzyme of the cholesterol biosynthetic pathway.^[ [29] ^] In contrast, BBR, a natural compound, reduces the expression of PCSK9 levels through transcriptional inhibition, thus increasing the LDLR availability on plasma membrane.^[ [30] ^] As additional and distinct mechanism to the latter, BBR is also able to stabilize the transcript of LDLR, thus increasing its half‐life.^[ [31] ^] As expected, cells stimulated with simvastatin released more PCSK9 into the culture medium compared to unstimulated cells, with a statistically significant concentration‐dependent effect (+73% at 20 μM, p < 0.01; +200% at 40 μM, p < 0.0001), while BBR at 10 μM decreased PCSK9 levels in the medium more than 50% (p < 0.0001 vs. basal) (Figure 5).^[ [32] ^] The amount of PCSK9 secreted into the culture media was measured with an appropriate ELISA kit (R&D System, DY3888 and DY008B2) on the supernatants collected during the MTT assay. Every experimental condition was run in duplicate and the average PCSK9 secretion and standard deviation was calculated. A 4PL regression analysis was used to interpolate unknowns with the standard curve using GraphPad Prism v10.2, according to manufacturers’ instructions. The data were normalized onto the corresponding cell viability, and IC50 was then calculated using GraphPad Prism v10.2.

[1] = MTT cell viability assay in HepG2 cell cultures; assay type: cell-based, human; details: human, HepG2 cells, MTT
Procedure: The approach we set‐up to test the new PCSK9i was based on functional assay, which evaluated at the same time compounds cytotoxicity, and their effect on the secreted PCSK9 on the same cell line. First, cell viability was evaluated in HepG2 cell cultures using the MTT assay (CC50 values are reported in Table 1 and Figure 5 ) after 24 h of incubation in starving conditions (0.4% fetal bovine serum (FBS)). The low FBS concentration, and thus low extracellular lipoproteins, stimulates the sterol responsive element binding protein (SREBP) pathway, inducing the expression of LDLR, PCSK9, HMG‐CoA reductase,^[ [28] ^] thus increasing the uptake of exogenous cholesterol and enhancing the synthesis of endogenous cholesterol. This first step allowed us to calculate the CC50 and identify the noncytotoxic concentrations (viability higher than 90%; Table 1), then tested for PCSK9 inhibitory activity.
Cell viability was assessed using the MTT assay. Cells were seeded in 96‐well plates (2.5 × 10^4 cells/well) in MEM supplemented with 10% v/v FBS and incubated for 24 h. The cells were then treated with the synthesized compounds dissolved in DMSO at increasing concentrations (from 0.5 to 50 µM) in MEM supplemented with 0.4% v/v FBS for 24 h. Simvastatin [20 and 40 µM] and BBR [10 µM] (both from Merck, St. Louis, Missouri, USA) were used as internal controls as PCSK9 inducer and inhibitor, respectively.^[ [21] ^, [34] ^, [35] ^] The cells were then incubated for 2 h with a solution of MTT [1 mg mL^–1] in MEM supplemented with 0.4% v/v FBS, away from light sources. The supernatant was then collected and 200 µL of DMSO was added to each well to solubilize the newly formed formazan. Finally, an aliquot of 100 µL was taken to measure the absorbance at a wavelength of 570 nm using an absorbance microplate reader (Spark Tecan, Switzerland). Every experimental condition was run in duplicate and the average cell viability and standard deviation was calculated. Cell viability was expressed as the percentage of treated cells compared to untreated (basal) cells. CC50 values for each compound were calculated by interpolating the percentage of cell viability through nonlinear regression analysis of the log (inhibition) versus response using GraphPad Prism software version 8.0 (GraphPad Software Inc., La Jolla, CA).

[2] = In vitro metabolic stability with mouse liver microsomes; assay type: in vitro ADME; details: 60 min; for metabolic stability (in words): MLM + NADPH-generating system; for metabolic stability, percentage of intact compound recovered relative to control: MLM 1 mg/ml + NADPH-generating system, 10 µM, HPLC
Procedure: All newly synthesized LSF derivatives of 5c were biologically evaluated to determine whether the introduced modifications influenced both metabolic stability and anti‐PCSK9 activity. Microsomal stability assays were conducted to assess the impact of LSF modifications on improving the stability of 5c. In these assays, LSF derivatives were incubated with mouse liver microsomes (MLM) and an NADPH‐generating system for 60 min, followed by HPLC analysis. Control samples included compounds and liver microsomes without the NADPH system, allowing for the assessment of nonspecific binding to microsomes. […] Acylated derivatives 12, 13, and 14 achieved stability levels exceeding 95%, as did the bicyclic derivative 7, which exemplifies a dual‐site functionalization.
MLM (pooled male) were obtained from Xenotech, LLC (Cambridge, Kansas City, USA). Glucose‐6‐phosphate (G6P), oxidized nicotinamide‐adenine‐dinucleotide phosphate (NADP^+), magnesium chloride (MgCl2), and glucose‐6‐phosphate‐dehydrogenase (G6PDH) were supplied by Sigma‐Aldrich (Milan, Italy). Metabolic stability assays were modified from Ferlenghi et al.^[ [33] ^] Briefly, samples were prepared in 100 mM phosphate buffered saline (PBS), pH 7.4, containing 1 mg ml^–1 MLM and a NADPH‐generating system (5 mM MgCl2, 10 mM glucose‐6‐phosphate, 2 mM NADP^+, 1.5 U ml^–1 of glucose‐6‐phosphate dehydrogenase). After incubation (37 °C, 5 min stirring), compounds stock solutions in DMSO were added to a final concentration of 10 µM. The final DMSO percentage in samples was kept at 0.5%. After 60 min, single aliquots of reaction mixture were withdrawn, added of two volumes of acetonitrile, centrifuged (10,000 g, 10 min) and the supernatant was analyzed by HPLC. The unspecific binding to MLM was evaluated by means of control samples in which the compounds were incubated in the absence of a NADPH generating system. The apparatus used for HPLC analysis was a Shimadzu instrument, with a reverse‐phase Nova‐Pak column (Waters) (C18 4 μm 3.9 × 150 mm, Waters). The mobile phase, pumped at a flow rate of 1.2 ml min^–1, consisted of water and acetonitrile in either a 50:50 (v/v) ratio (compounds 5c, 6a, 6b, 6c, 7, 8, 12, 13, 14, 17b) or a 40:60 (v/v) ratio (compounds 11 and 15) or a 30:70 (v/v) ratio (for compounds 17a, 18a, 18b). For compounds 9 and 10, a phosphate buffer (5.98 g L^–1 Na2HPO4, 0.19 g L^–1 KH2PO4, adjusted to pH 7.4 with 85% H3PO4 and supplemented with 1.4 mL L^–1 triethylamine; final pH: 8) and acetonitrile (50:50, v/v) were pumped at a flow rate of 2 mL min^–1. In all cases, column temperature was 35 °C, injection volume was 50 µl, and absorbance was monitored at 254 nm. Serial dilutions for the calibration curves were prepared in the interval 0.5–20 µM in either PBS:CH3CN or H2O:CH3CN mixture (50:50, v/v) for compounds 5c, 6a, 6b, 8, 9, 10, 11, 12, 13, 14, 15, 17a, 17b, 18a, 18b, and in acetonitrile for compounds 6c and 7.

[3] = printed in Figures 5 and 8, HepG2, 24 h, read-out: CC50
[4] = Homo sapiens, HepG2, Table S2, ELISA, non-cytotoxic concentrations, read-out: IC50 ± SD on PCSK9 secreted by HepG2
[5] = Homo sapiens, HepG2, 24 h, read-out: secreted PCSK9 change vs. basal
[6] = 24 h incubation, HepG2, 0.4% FBS, 0.5-50.0 μM, read-out: CC50 (CI 95%)
[7] = HepG2, 24 h, non-cytotoxic concentrations

| SMILES | CC50 at 24 h [1, 3] [µM] | IC50 (secreted PCSK9; [4]) [µM] | inhibition at 0.5 µM (secreted PCSK9; [5]) [%] | CC50 at 24 h [1, 6] [µM] | metabolic stability (in words) [2] | effect on PCSK9 secretion (in words) (secreted PCSK9; [7]) | further results |
| --- | --- | --- | --- | --- | --- | --- | --- |
| COc1ccc2cc3[n+](cc2c1OC)CCc1cc2c(cc1-3)OCO2 [BBR, berberine, reference compound] | 25 |  |  |  |  |  | decrease of secreted PCSK9 vs. basal (secreted PCSK9; 10 μM, HepG2, 24 h): more than 50%; inhibition at 10 µM (secreted PCSK9; Homo sapiens, 10 μM, HepG2, 24 h, read-out: secreted PCSK9 change vs. basal): 52%; IC50 (secreted PCSK9; Homo sapiens, HepG2, 24 h, ELISA on supernatants, normalized to viability, Figures 5 and 8 and text, read-out: IC50 (anti-PCSK9 activity, PCSK9 secretion)): 10 µM |
| Cc1cc(NCc2ccc(C(F)(F)F)cc2)c(Cl)c(=O)n1Cc1ccc(C(F)(F)F)cc1 [Compound 6a, 3‐Chloro‐6‐Methyl‐1‐(4‐(Trifluoromethyl)Benzyl)‐4‐((4‐(Trifluoromethyl)Benzyl)Amino)pyridin‐2(1H)‐One] |  | 5.4 ± 2.65 | 80 | 16 |  |  | inhibition at 5 µM (secreted PCSK9; [5]): 55% |
| Cc1cc(NCc2ccc(C(F)(F)F)cc2)c(I)c(=O)n1Cc1ccc(C(F)(F)F)cc1 [Compound 6c, 3‐Iodo‐6‐Methyl‐1‐(4‐(Trifluoromethyl)Benzyl)‐4‐((4‐(Trifluoromethyl)Benzyl)Amino)pyridin‐2(1H)‐One] |  |  | 20 | 46.9 | did not improve compared to the parent compound 5c |  |  |
| CO/C(=N\c1cc(C)n(Cc2ccc(C(F)(F)F)cc2)c(=O)c1)c1ccc(C(F)(F)F)cc1 [Compound 8, Methyl (Z)‐N‐(6‐Methyl‐2‐Oxo‐1‐(4‐(Trifluoromethyl)Benzyl)‐1,2‐Dihydropyridin‐4‐yl)‐4‐(Trifluoromethyl)Benzimidate] | 43.1 | 7.2 ± 0.51 |  | 30.2 | entirely metabolized |  | decrease of secreted PCSK9 vs. basal (secreted PCSK9; 10 μM, HepG2, 24 h): 50% |
| Cc1cc(NCc2ccc(C(F)(F)F)cc2)c(CN2CCCC2)c(=O)n1Cc1ccc(C(F)(F)F)cc1 [Compound 9, 6‐Methyl‐3‐(Pyrrolidin‐1‐ylmethyl)‐1‐(4‐(Trifluoromethyl)Benzyl)‐4‐((4‐(Trifluoromethyl)Benzyl)Amino)pyridin‐2(1H)‐One] |  |  |  | 22.2 | did not exhibit any enhancements relative to 5c | moderate but significant inhibition of PCSK9 secretion |  |
| Cc1cc2c(c(=O)n1Cc1ccc(C(F)(F)F)cc1)CN(C(C)C)CN2Cc1ccc(C(F)(F)F)cc1 [Compound 10, 3‐Isopropyl‐7‐Methyl‐1,6‐Bis(4‐(Trifluoromethyl)Benzyl)‐2,3,4,6‐Tetrahydropyrido[4,3‐d]pyrimidin‐5(1H)‐One] |  |  |  | 21.9 | less stable |  |  |
| Cc1cc2c(c(=O)n1Cc1ccc(C(F)(F)F)cc1)CCC(=O)N2Cc1ccc(C(F)(F)F)cc1 [Compound 11, 7‐Methyl‐1,6‐Bis(4‐(Trifluoromethyl)Benzyl)‐4,6‐Dihydro‐1,6‐Naphthyridine‐2,5(1H,3H)‐Dione] |  | 10.2 ± 2.81 |  | 28 | modest yet notable improvement in stability | moderate but significant inhibition of PCSK9 secretion |  |
| CC(=O)N(Cc1ccc(C(F)(F)F)cc1)c1cc(C)n(Cc2ccc(C(F)(F)F)cc2)c(=O)c1 [Compound 12, N‐(6‐Methyl‐2‐Oxo‐1‐(4‐(Trifluoromethyl)Benzyl)‐1,2‐Dihydropyridin‐4‐yl)‐N‐(4‐(Trifluoromethyl)Benzyl)Acetamide] |  | 13.6 ± 2.67 |  | 43 |  | did not inhibit PCSK9 in a dose‐dependent manner | inhibition at 25 µM (secreted PCSK9; Homo sapiens, 25 μM, HepG2, 24 h, read-out: secreted PCSK9 change vs. basal): 75%; metabolic stability, percentage of intact compound recovered relative to control [2]: exceeding 95% |
| Cc1cc(N(Cc2ccc(C(F)(F)F)cc2)C(=O)c2ccccc2)cc(=O)n1Cc1ccc(C(F)(F)F)cc1 [Compound 13, N‐(6‐Methyl‐2‐Oxo‐1‐(4‐(Trifluoromethyl)Benzyl)‐1,2‐Dihydropyridin‐4‐yl)‐N‐(4‐(Trifluoromethyl)Benzyl)Benzamide] | > 50 |  | 17 |  |  |  | inhibition at 5 µM (secreted PCSK9; [5]): 51%; metabolic stability, percentage of intact compound recovered relative to control [2]: exceeding 95% |
| CCC(C)(C)C(=O)O[C@H]1C[C@@H](C)C=C2C=C[C@H](C)[C@H](CC[C@@H]3C[C@@H](O)CC(=O)O3)[C@H]21 [simvastatin, reference compound] |  |  |  |  |  |  | secreted PCSK9 change vs. unstimulated cells (secreted PCSK9; 20 μM, HepG2, 24 h): +73%; secreted PCSK9 change vs. unstimulated cells (secreted PCSK9; 40 μM, HepG2, 24 h): +200% |
